By Kd is commonly meant a measure of binding affinity in units of concentration. As a reminder, the pKa is the pH at which an ionisable group is half protonated.

Like-named read-outs stand apart in the source and are kept apart here. Marks after values point to notes of the source that are not given here.

Here are results for 13 molecules from PMC4811560, “Kinetic Characterisation of a Single Chain Antibody against the Hormone Abscisic Acid: Comparison with Its Parental Monoclonal” (PLoS ONE, 2016).

In one data set the test system is MBP-antiABA-scFv. The data set is described as follows: SPR affinity in solution (competitive titration) of test compounds for the scFv. Format: binding, mouse. The note with it: for Cross-reactivity MBP-aABA-scFv: from KA relative to (+)-ABA = 100%; for Affinity in solution, MBP-aABA-scFv, KA / Kd: scFv 25 nM, 1 hour at 25°C; for Kd: read-out: Affinity in solution, MBP-aABA-scFv, KD. On the procedure: All heterogeneous phase (surface) techniques can be subject to artefacts introduced by ligand immobilisation or e.g. biotinylation of the free ligand. […] The equilibrium mixtures (1 hour at 25°C) were injected over an SA chip surface saturated with b-PEG-ABA at high ligand density, and the initial binding rate of free scFv was measured. The concentration of free scFv from each equilibrium mixture was determined from a calibration curve (S6A Fig) and plotted against the concentration of free (+)-ABA. Data points were fitted to the solution affinity model in BIAevaluation (S5B Fig). […] Thus, the kinetics of the fusion protein have been described with confidence. Next these were compared with the characteristics of both cleaved, free scFv and with the parental monoclonal immunoglobulin.
The selectivity of the scFv for (+)-ABA was tested by determining the affinity in solution for structurally or physiologically related compounds. […] The concentration of free scFv in the equilibrium mixtures was determined and plotted against concentration of competitor. Affinity was determined by fitting the data points to a solution affinity model (Fig 4). The KA value was determined for each compound, and then percentage cross-reactivity was calculated by expressing each KA value relative to the KA for (+)-ABA. Values were compared to literature data for the parental monoclonal antibody (Table 3).
Fig 4 Cross-reactivity of the anti-ABA-scFv. […] The concentration of free scFv in the equilibrium mixtures was plotted against the concentration of test compound. The structures of each competitor are shown framed in the same colours as the data in the dose graph. There is no box for the racemic mix. The colour code for each compound is shown on the left of the plot.
Figure S6. Affinity in solution. (a) A calibration curve was generated by injecting known concentrations of free MBP-antiABA-scFv (0.1 nM – 50 nM) over the surface of a SA sensor chip saturated with b -PEG-ABA, plotting the initial binding rate against concentration and fitting the data points to a 4 -parameter equation. (b) MBP- […]
1 nM, 5 nM, 10 nM, 50 nM, 100 nM, 200 nM, 500 nM), and the mixtures incubated to equilibrium (1 hour at 25°C). The concentration of free MBP -antiABA-scFv in the equilibrium mixtures was then determined from the calibration curve. The concentration of free MBP -antiABA-scFv in the equilibrium mixtures was plotted against (+)-ABA concentration and the data points were fitted to a solution affinity […]
(1 picture or pasted object on this page, not shown here)

A further data set deals with mAb 15-I-C5. The note with it: cited from earlier work.
For data set [1] the following is noted: no reference given; cited from earlier work.
Where [2] appears, read: radiolabel displacement curves, 50% displacement, ref Walker-Simmons et al., 1991.
Where [3] appears, read: radiolabel displacement curves, 50% displacement, ref Phytodetek manual m100.2, Agdia Inc.

On to `CC(C=CC1C(C)=CC(=O)CC1(C)C)=CC(=O)O` (mixture of isomers) [2-cis-(R,S)-(±)-1’-deoxy-ABA], for which, in the data set on MBP-antiABA-scFv, the “Cross-reactivity MBP-aABA-scFv” value is listed as 0.309%; the “Affinity in solution, MBP-aABA-scFv, KA” value amounted to 917000 M⁻¹; the Kd turned out to be 1.09 µM. The “Cross-reactivity MBP-aABA-scFv” value in the data set on MBP-antiABA-scFv (listed as 1ʹ-deoxy-ABA) is 0.3%. The “affinity, fold lower than that for (+)-ABA” value in the data set with MBP-antiABA-scFv (scFv) is reported as “over 100 fold”.

Regarding `CC(C=CC1(O)C(C)=CC(=O)CC1(C)C)=CC(=O)O` (racemic) [2-cis-(R,S)-(±)-ABA], in the data set with MBP-antiABA-scFv, the “Cross-reactivity MBP-aABA-scFv” value stood at 44.25%; the “Affinity in solution, MBP-aABA-scFv, KA” value amounted to 1.31e+08 M⁻¹; the Kd stood at 0.00761 µM. Further, the “Cross-reactivity MBP-aABA-scFv” value in the data set on MBP-antiABA-scFv (listed as (±)-ABA) was 44.3%. Also, the “Cross-reactivity mAb 15-I-C5” value in the data set on mAb 15-I-C5 (setting [2]) is given as 49.4 ^d %.

As to `NCCCCC(N)C(=O)O` (racemic) [D,L-Lysine], in the data set with MBP-antiABA-scFv, the “Cross-reactivity MBP-aABA-scFv” value is listed as 0.00006%; the “Affinity in solution, MBP-aABA-scFv, KA” value was 163 M⁻¹; the dissociation constant (Kd) came out at 6120 µM. Moreover, in the data set with MBP-antiABA-scFv (listed as lysine), the “Cross-reactivity MBP-aABA-scFv” value was “lower than 10^−4%”.

With `CC1=CC(=O)CC(C)(C)[C@@]1(O)/C=C/C(C)=C\C(=O)O` [2-cis-(S)-(+)-ABA], in the data set on MBP-antiABA-scFv, the “Cross-reactivity MBP-aABA-scFv” value came out at 100%; the “Affinity in solution, MBP-aABA-scFv, KA” value was found to be 2.96e+08 M⁻¹; the Kd was 0.00337 µM. In addition, the “affinity relative to the inactive (-)-ABA” value in the data set with MBP-antiABA-scFv (scFv) is recorded as “three orders of magnitude higher”. In the data set on mAb 15-I-C5 (reference value, determined by other investigators, no source marked), the “Cross-reactivity mAb 15-I-C5” value was 100%.

In the case of `CC1=CC(=O)CC(C)(C)[C@@]1(O)/C=C/C(C)=C/C(=O)O` [2-trans-(S)-(+)-ABA], the “Cross-reactivity mAb 15-I-C5” value with mAb 15-I-C5 (setting [3]) was 0%; with mAb 15-I-C5 (setting [2]) it was 0.98%.

Consider `CC1=CC(=O)CC(C)(C)C1(O)/C=C/C(C)=C\C(=O)O` (centres unmarked) [ABA, abscisic acid], for which the pKa in data set [1] is given as 4.75.

On to `CC(C)=CCC/C(C)=C/CC/C(C)=C/CO` [All-trans-Farnesol], for which, in the data set with MBP-antiABA-scFv, the “Cross-reactivity MBP-aABA-scFv” value turned out to be 0.00002%; the “Affinity in solution, MBP-aABA-scFv, KA” value was 58.4 M⁻¹; the Kd is 17100 µM. For the same molecule, the “Cross-reactivity MBP-aABA-scFv” value in the data set on MBP-antiABA-scFv (listed as farnesol) is reported as “lower than 10^−4%”. Further, the “Cross-reactivity mAb 15-I-C5” value in the data set with mAb 15-I-C5 (setting [3]) was 0 ^c %.

On to `O=C(O)c1ccccc1` [Benzoic acid], for which, in the data set with MBP-antiABA-scFv, the “Cross-reactivity MBP-aABA-scFv” value is 0.00003%; the “Affinity in solution, MBP-aABA-scFv, KA” value came to 91.7 M⁻¹; the Kd is 10900 µM. Besides, the “Cross-reactivity MBP-aABA-scFv” value in the data set on MBP-antiABA-scFv (listed as benzoic acid) is recorded as “lower than 10^−4%”.

As to `CC(C=CC1(O)C2(C)COC1(C)CC(O)C2)=CC(=O)O` (centres unmarked) [Dihydrophaseic acid], in the data set on MBP-antiABA-scFv, the “Cross-reactivity MBP-aABA-scFv” value turned out to be 0.156%; the “Affinity in solution, MBP-aABA-scFv, KA” value stood at 462000 M⁻¹; the Kd amounted to 2.17 µM. Further, the “Cross-reactivity MBP-aABA-scFv” value with MBP-antiABA-scFv (listed as dihydrophaseic acid) turned out to be 0.16%. The “affinity, fold lower than that for (+)-ABA” value in the data set on MBP-antiABA-scFv (scFv) was “over 100 fold”. In addition, the “Cross-reactivity mAb 15-I-C5” value with mAb 15-I-C5 (setting [3]) is listed as <0.1 ^c %.

Take `C=C1C[C@]23C[C@@]1(O)CC[C@H]2[C@@]12C=C[C@H](O)[C@@](C)(C(=O)O1)[C@H]2[C@@H]3C(=O)O` [Gibberellic acid]: in the data set on MBP-antiABA-scFv, the “Cross-reactivity MBP-aABA-scFv” value is recorded as 0.00001%; the “Affinity in solution, MBP-aABA-scFv, KA” value came out at 30.4 M⁻¹; the equilibrium dissociation constant (Kd) amounted to 32800 µM. Further, the “Cross-reactivity MBP-aABA-scFv” value in the data set on MBP-antiABA-scFv (listed as gibberellic acid) is recorded as “lower than 10^−4%”.

In the case of `O=C(O)Cc1c[nH]c2ccccc12` [Indole-3-acetic acid], in the data set with MBP-antiABA-scFv, the “Cross-reactivity MBP-aABA-scFv” value was determined as 0.00005%; the “Affinity in solution, MBP-aABA-scFv, KA” value is 138 M⁻¹; the equilibrium dissociation constant (Kd) came out at 7230 µM. The “Cross-reactivity MBP-aABA-scFv” value with MBP-antiABA-scFv (listed as auxin) was “lower than 10^−4%”.

As to `CC(=C/C(=O)O)/C=C/[C@]1(O)[C@@]2(C)CO[C@]1(C)CC(=O)C2` [Phaseic acid], in the data set on MBP-antiABA-scFv, the “Cross-reactivity MBP-aABA-scFv” value came out at 0.029%; the “Affinity in solution, MBP-aABA-scFv, KA” value came to 88200 M⁻¹; the Kd came out at 11.3 µM. For the same molecule, the “Cross-reactivity MBP-aABA-scFv” value in the data set on MBP-antiABA-scFv (listed as phaseic acid) is 0.03%. The “affinity, fold lower than that for (+)-ABA” value in the data set on MBP-antiABA-scFv (scFv) is listed as “over 100 fold”. Also, the “Cross-reactivity mAb 15-I-C5” value in the data set on mAb 15-I-C5 (setting [3]) is listed as <0.1 ^c %.

Regarding `CC(C=CC12OC1(C)CC(O)CC2(C)C)=CC=O` (centres unmarked) [Xanthoxin], in the data set with MBP-antiABA-scFv, the “Cross-reactivity MBP-aABA-scFv” value is reported as 0.0002%; the “Affinity in solution, MBP-aABA-scFv, KA” value is 617 M⁻¹; the Kd is 1620 µM. Further, the “Cross-reactivity MBP-aABA-scFv” value with MBP-antiABA-scFv (listed as xanthoxin) is recorded as “lower than 10^−4%”. Further, the “Cross-reactivity mAb 15-I-C5” value with mAb 15-I-C5 (setting [3]) is recorded as 0 ^c %.
